From patent US10669268B2, “Bicyclic derivatives” (Hoffmann-La Roche Inc., priority 2012, dated 2020) come the findings set out here.

The assay has as its target ATX (human His-tagged) (Homo sapiens (Human), UniProt Q13822). Briefly: Human ATX enzyme inhibition assay (fluorescence quenching, MR121 substrate). The format is biochemical. To be noted: 30 nM ATX, 1 μM MR121 substrate, 30° C., pH 8.0. As to the method: Human ATX Enzyme Inhibition Assay
Assay working solutions were made as follows:
Assay buffer (50 mM Tris-HCl, 140 mM NaCl, 5 mM KCl, 1 mM CaCl2, 1 mM MgCl2, 0.01% Triton-X-100, pH 8.0;
MR121 substrate solution: MR121 substrate stock solution (800 μM MR121 substrate in DMSO), diluted to 2-5× final concentration in assay buffer.
10 μL of MR121 substrate solution was added (1 μM final concentration), mixed 30 times and then incubated for 15 minutes at 30° C.
`O=C(CCc1cc(Cl)cc(Cl)c1)N1C[C@@H]2CN(C(=O)c3ccc4[nH]nnc4c3)C[C@@H]2C1` [Example 1.01, 1-((3aR,6aS)-5-(1H-benzo[d][1,2,3]triazole-5-carbonyl)hexahydropyrrolo[3,4-c]pyrrol-2(1H)-yl)-3-(3,5-dichlorophenyl)propan-1-one] had a half-maximal inhibitory concentration (IC50) of 35 nM. The result for `O=C(CCc1cc(Cl)cc(Cl)c1)N1C[C@@H]2CN(C(=O)c3ccc4[nH]c(=O)oc4c3)C[C@@H]2C1` [Example 1.02, 6-((3aR,6aS)-5-(3-(3,5-dichlorophenyl)propanoyl)octahydropyrrolo[3,4-c]pyrrole-2-carbonyl)benzo[d]oxazol-2(3H)-one] reads 77 nM. `O=C(OCc1cc(Cl)cc(Cl)c1)N1C[C@@H]2CN(C(=O)c3ccc4[nH]nnc4c3)C[C@@H]2C1` [Example 1.03, (3aR,6aS)-3,5-dichlorobenzyl 5-(1H-benzo[d][1,2,3]triazole-5-carbonyl)hexahydropyrrolo[3,4-c]pyrrole-2(1H)-carboxylate] registered an IC50 of 25 nM. As for `O=C(OCc1cc(Cl)cc(Cl)c1)N1C[C@@H]2CN(C(=O)c3cc4c(cn3)[nH]c3ccccc34)C[C@@H]2C1` [Example 1.04, (3aR,6aS)-3,5-dichlorobenzyl 5-(9H-pyrido[3,4-b]indole-3-carbonyl)hexahydropyrrolo[3,4-c]pyrrole-2(1H)-carboxylate], the midpoint of inhibition, the IC50, lay at 127 nM. Consider `O=C(OCc1cc(Cl)cc(Cl)c1)N1C[C@@H]2CN(C(=O)c3ccc4[nH]ccc4c3)C[C@@H]2C1` [Example 1.05, (3aR,6aS)-3,5-dichlorobenzyl 5-(1H-indole-5-carbonyl)hexahydropyrrolo[3,4-c]pyrrole-2(1H)-carboxylate], for which the half-inhibitory concentration (IC50) was determined as 90 nM. `O=C(OCc1cc(Cl)cc(Cl)c1)N1C[C@@H]2CN(C(=O)c3ccc4[nH]c5ccccc5c4c3)C[C@@H]2C1` [Example 1.06, (3aR,6aS)-3,5-dichlorobenzyl 5-(9H-carbazole-3-carbonyl)hexahydropyrrolo[3,4-c]pyrrole-2(1H)-carboxylate]: the 50% inhibitory concentration (IC50) worked out at 255 nM.

For `O=C(OCc1cc(Cl)cc(Cl)c1)N1C[C@@H]2CN(C(=O)c3ccc4[nH]ncc4c3)C[C@@H]2C1` [Example 1.07, (3aR,6aS)-3,5-dichlorobenzyl 5-(1H-indazole-5-carbonyl)hexahydropyrrolo[3,4-c]pyrrole-2(1H)-carboxylate], half-maximal inhibition (IC50) required 1030 nM. As for `O=C(OCc1cc(Cl)cc(Cl)c1)N1C[C@@H]2CN(C(=O)c3ccc4[nH]cnc4c3)C[C@@H]2C1` [Example 1.08, (3aR,6aS)-3,5-dichlorobenzyl 5-(1H-benzo[d]imidazole-5-carbonyl)hexahydropyrrolo[3,4-c]pyrrole-2(1H)-carboxylate], the IC50 amounted to 503 nM. For `O=C(OCc1cc(Cl)cc(Cl)c1)N1CC[C@@H]2CN(C(=O)c3ccc4[nH]nnc4c3)C[C@@H]2CC1` [Example 1.11, (3aR,8aS)-3,5-dichlorobenzyl 2-(1H-benzo[d][1,2,3]triazole-5-carbonyl)octahydropyrrolo[3,4-d]azepine-6(7H)-carboxylate], the 50% inhibitory concentration (IC50) is 4 nM. The compound `O=C(c1ccc2[nH]nnc2c1)N1C[C@@H]2CN(S(=O)(=O)CCc3cccc(Cl)c3)C[C@@H]2C1` [Example 1.12, (1H-benzotriazol-5-yl)-{(3aS,6aR)-5-[2-(3-chloro-phenyl)-ethanesulfonyl]-hexahydro-pyrrolo[3,4-c]pyrrol-2-yl}-methanone] registered a concentration for half-maximal inhibition (IC50) of 9260 nM.

`O=C(OCc1cc(Cl)cc(Cl)c1)N1C[C@@H]2CN(C(=O)C3CCc4[nH]nnc4C3)C[C@@H]2C1` (stereo partly drawn) [Example 1.13, (3aR,6aS)-3,5-dichlorobenzyl 5-(4,5,6,7-tetrahydro-1H-benzo[d][1,2,3]triazole-5-carbonyl)hexahydropyrrolo[3,4-c]pyrrole-2(1H)-carboxylate]: the concentration for half-maximal inhibition (IC50) was determined as 226 nM.
